Here are results for 21 molecules from patent US5843958A, “Arylpyrazoles as leukotriene inhibitors” (Ortho Pharmaceutical Corporation, priority 1997, dated 1998).

In assay [1] the test system is 5-LO. In words: inhibition of 5-LO (5-HETE production) in intact RBL-1 cells (whole cell). In kind it is cell-based, Rat. The following applies: Table A. The protocol: (§1) The compounds of the invention were evaluated for their ability to inhibit the production of the arachidonic acid product 5-HETE in broken and whole cell models. Since this is the first step of leukotriene biosynthesis, a reduction in the production of 5-HETE is directly attributable to inhibition of 5-lipoxygenase, where the standard concentration is 3.0 μM. If the IC50 of the whole cell assay is smaller than the IC50 of the broken cell model, it is an indication that the compounds are inhibiting the cooperation of FLAP and 5-lipoxygenase.
The ability to inhibit 5-LO and CO in intact RBL-1 cells was also evaluated. RBL-1 cells were maintained in culture in minimal essential medium (Bio*Whittaker, Walkersville, Md.), containing 12.5% fetal calf serum, 10 mg/mL streptomycin, 10 I.U./mL penicillin G, […] gentamycin and 2 mM L-glutamine (Bio*Whittaker, Walkersville, Md.). Cells were collected by centrifugation, washed once in HBSS, and resuspended at a concentration of 1×10^5 cells/mL. Cells were incubated in the presence of vehicle or drug then centrifuged at 800×g for 10 minutes at 4° C. The supernatant was removed by aspiration and the cells were resuspended in 0.5 mL of HBSS. The reaction was started by the addition of 20 μg/mL of calcium ionophore A 23187 (mixed calcium and magnesium salts, Calbiochem, La Jolla Calif.) and allowed to proceed for 15 minutes, then stopped by plunging the tubes into a slush ice bath. The conversion of AA to 5-LO products was initiated by the addition of 10 μL (50 uCi) of 1-^14 C-AA. Products were isolated by acidification and extraction, followed by thin layer chromatography analysis as described above. Radioactive areas corresponding to authentic 5-LO (5-HETE) and CO (PGD2) products were quantitated by the Bioscan 2000 Imaging System and the IC50 was calculated as above.

Assay [2] addresses T1, 5-lipoxygenase (Rattus norvegicus, UniProt P12527).
T1 construct: The pellet was discarded and the supernatant was saved as the source of enzymes; endogenous in cells; host or cells: RBL-1 (rat basophilic leukemia) cells, homogenate supernatant
T1 sequence (P12527 1-673): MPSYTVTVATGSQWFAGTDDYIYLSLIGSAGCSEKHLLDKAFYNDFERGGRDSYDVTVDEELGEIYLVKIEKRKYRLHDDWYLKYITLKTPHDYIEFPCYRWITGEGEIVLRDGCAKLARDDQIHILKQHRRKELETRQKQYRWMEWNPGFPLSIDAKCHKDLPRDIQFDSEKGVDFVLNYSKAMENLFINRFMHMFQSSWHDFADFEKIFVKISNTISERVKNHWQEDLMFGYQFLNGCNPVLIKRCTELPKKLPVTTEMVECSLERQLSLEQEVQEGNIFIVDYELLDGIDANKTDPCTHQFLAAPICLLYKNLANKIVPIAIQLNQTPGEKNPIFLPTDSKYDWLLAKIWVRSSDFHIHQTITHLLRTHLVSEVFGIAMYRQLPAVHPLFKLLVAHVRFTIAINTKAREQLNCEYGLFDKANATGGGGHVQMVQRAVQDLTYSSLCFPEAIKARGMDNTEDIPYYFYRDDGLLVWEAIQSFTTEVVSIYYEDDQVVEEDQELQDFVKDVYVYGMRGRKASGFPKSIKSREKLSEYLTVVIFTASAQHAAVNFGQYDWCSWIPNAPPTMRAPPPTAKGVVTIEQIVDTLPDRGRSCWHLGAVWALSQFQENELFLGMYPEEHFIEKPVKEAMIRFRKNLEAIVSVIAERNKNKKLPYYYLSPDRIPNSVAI
The assay can be described thus: inhibition of 5-HETE production in broken RBL-1 cells (isolated enzyme). In kind it is biochemical. The following applies: Table A, broken RBL-1 cell supernatant; for inhibition at 3 µM: read-out: Isolated Enzyme % Inhib.; for inhibition at 3 µM / Isolated Enzyme % Inhib.: 3 μM. The protocol:
as §1
Rat basophilic leukemia cells (RBL-1; 5×10^7 viable cells/mL) were disrupted by homogenization on ice (four 20 sec bursts) with a Brinkman polytron. Complete cell breakage was verified microscopically. The homogenate was then centrifuged at 9,220×g for 48 minutes at 4° C. The pellet was discarded and the supernatant was saved as the source of enzymes. The supernatant was pre-incubated for five minutes at 37° C. in the presence of 2 mM of CaCl2 and compound or vehicle (1% DMSO). The conversion of AA into products by CO and LO was initiated by adding 10 μL (50 μCi) of 1-^14 C-AA to each tube and incubated at 37° C. for 20 minutes. The reaction was stopped by adjusting the pH of each sample to 3 to 3.5 with 2M formic acid. Samples were extracted with three volumes of chloroform to isolate the products of 5-LO formed during the reaction. Fractions were dried under nitrogen, then resuspended in 40 μL of chloroform and spotted onto silica gel HL plates. The plates were developed in A-9 solvent. The dried plates were analyzed using a Bioscan Imaging TLC scanner to determine the percentage of radiolabelled AA converted to 5-HETE (LO product) in each sample. The percentage of inhibition was calculated by:
[1-(5-HETE test)]/5-HETE control×100=% inhibition
The IC50 was determined using a curve fit in Cricket Graph (Computer Associated), which provided the equation of the regressed line used in the calculation.

Molecules are shown by their SMILES.

By IC50 is commonly meant the concentration at which inhibition is half-maximal. A lower IC50 goes with inhibition by little substance. In the case of `CCOC(=O)Cc1cc(-c2ccc(Cl)cc2)n(-c2ccc(OCc3ccc4ccccc4n3)cc2)n1` [Cpd 1], 13400 nM corresponded to half-maximal inhibition in assay [1] (IC50). In assay [2], the inhibition at 3 µM stood at 29%.

`O=C(O)Cc1cc(-c2ccc(Cl)cc2)n(-c2ccc(OCc3ccc4ccccc4n3)cc2)n1` [Cpd 2, 2-[5-(4-Chlorophenyl)-1-(4-(2-quinolyl)methoxyphenyl)-pyrazol-3-yl]acetic acid] registered a half-maximal inhibitory concentration (IC50) in assay [1] of 390 nM. Further, the inhibition at 3 µM in assay [2] was determined as 15%.

For the molecule `OCCc1cc(-c2ccc(Cl)cc2)n(-c2ccc(OCc3ccc4ccccc4n3)cc2)n1` [Cpd 3], the IC50 in assay [1] stood at 1300 nM. Besides, the inhibition at 3 µM in assay [2] is 31%.

In turn, `ClCCc1cc(-c2ccc(Cl)cc2)n(-c2ccc(OCc3ccc4ccccc4n3)cc2)n1` [Cpd 4, 3-(2-Chloroethyl)-5-(4-chlorophenyl)-1-[4-(2-quinolyl)methoxyphenyl]pyrazole] had a half-maximal inhibitory concentration (IC50) in assay [1] of 5300 nM. For the same molecule, the inhibition at 3 µM in assay [2] was 55%.

Regarding `CN(O)C(=O)OCCc1cc(-c2ccc(Cl)cc2)n(-c2ccc(OCc3ccc4ccccc4n3)cc2)n1` [Cpd 5, 5-(4-Chlorophenyl)-3-[2-(N-hydroxy-N-methylcarbamoyloxy)]ethyl]-1-[4-(2-quinolyl)methoxyphenyl]pyrazole.0.05 Hydrate], inhibition in assay [1] was half-maximal at 1100 nM (IC50). For the same molecule, the inhibition at 3 µM in assay [2] is 93%.

Regarding `CN(O)C(=O)CCc1cc(-c2ccc(Cl)cc2)n(-c2ccc(OCc3ccc4ccccc4n3)cc2)n1` [Cpd 7, 3-{5-(4-Chlorophenyl)-N-hydroxy-N-methyl-1-[4-(2-quinolyl)methoxyphenyl]pyrazol-3-yl}propanamide], the IC50 was found to be 490 nM in assay [1] and 210 nM in assay [2]. Further, in assay [2], the “Isolated Enzyme % Inhib.” value is 93%.

With `O=CCCc1cc(-c2ccc(Cl)cc2)n(-c2ccc(OCc3ccc4ccccc4n3)cc2)n1` [Cpd 8], the half-inhibitory concentration (IC50) in assay [1] came to 3200 nM. In assay [2], the inhibition at 3 µM was determined as 49%.

`ON=CCCc1cc(-c2ccc(Cl)cc2)n(-c2ccc(OCc3ccc4ccccc4n3)cc2)n1` [Cpd 9, 5-(4-Chlorophenyl)-3-oximino 1-(4-(2-quinolyl)methoxy)phenyl)-pyrazol-3-yl]propanal.0.25 Hydrate] came in with a concentration for half-maximal inhibition (IC50) in assay [1] of 550 nM. The inhibition at 3 µM in assay [2] worked out at 44%.

In turn, `CC(C)COC(=O)CCc1cc(-c2ccc(Cl)cc2)n(-c2ccc(OCc3ccc4ccccc4n3)cc2)n1` [Cpd 10] came in with an IC50 in assay [1] of 1500 nM. Moreover, in assay [2], the inhibition at 3 µM was determined as 34%.

Consider `Cc1cc(-c2ccc(Cl)cc2)n(-c2ccc(OCc3ccc4ccccc4n3)cc2)n1` [Cpd 11], for which the half-maximal inhibitory concentration (IC50) in assay [1] was 6500 nM. In addition, the inhibition at 3 µM in assay [2] was 32%.

In turn, `CCOC(=O)CCc1cc(-c2ccc(Cl)cc2)n(-c2ccc(OCc3ccc4ccccc4n3)cc2)n1` [Cpd 12] came in with a 50% inhibitory concentration (IC50) in assay [1] of 7400 nM. Besides, the inhibition at 3 µM in assay [2] came out at 19%.

Molecule `COc1ccc(-n2nc(CCC(=O)O)cc2-c2ccc(OCc3ccc4ccccc4n3)cc2)cc1` [Cpd 13] yielded an IC50 in assay [1] of 3900 nM. In addition, the “Isolated Enzyme % Inhib.” value in assay [2] was 8%.

`COc1ccc(-n2nc(CCC(=O)O)cc2-c2ccc(OCc3ccc4ccccc4n3)cc2)cc1` [Cpd 14] gave an IC50 in assay [1] of 2000 nM. For the same molecule, in assay [2], the “Isolated Enzyme % Inhib.” value amounted to 24%.

Take `O=C(O)CCc1cc(-c2ccc(Cl)cc2)n(-c2ccc(OCc3ccc4ccccc4n3)cc2)n1` [Cpd 15]: the IC50 in assay [1] came out at 5200 nM. Moreover, in assay [2], the inhibition at 3 µM was determined as 0%.

In assay [1], `COc1ccc(-n2nc(CCC(=O)N(C)O)cc2-c2ccc(OCc3ccc4ccccc4n3)cc2)cc1` [Cpd 16] yielded an IC50 of 540 nM. Besides, the inhibition at 3 µM in assay [2] was 87%.

As to `COC(=O)CCc1cc(-c2ccc(OCc3ccc4ccccc4n3)cc2)n(-c2ccccc2)n1` [Cpd 17], in assay [2], the inhibition at 3 µM worked out at 19%.

Consider `O=C(O)CCc1cc(-c2ccc(OCc3ccc4ccccc4n3)cc2)n(-c2ccc(Cl)cc2)n1` [Cpd 18], for which the inhibition at 3 µM in assay [2] stood at 0%.

In the case of `O=C(O)CCc1cc(-c2ccc(OCc3ccc4ccccc4n3)cc2)n(-c2ccccc2)n1` [Cpd 19], the inhibition at 3 µM in assay [2] amounted to 0%.

Take `OCCCc1cc(-c2ccc(Cl)cc2)n(-c2ccc(OCc3ccc4ccccc4n3)cc2)n1` [Cpd 20]: in assay [1], half-maximal inhibition (IC50) was put at 840 nM. The inhibition at 3 µM in assay [2] came out at 21%.

Turning to `CN(O)C(=O)CCc1cc(-c2ccc(OCc3ccc4ccccc4n3)cc2)n(-c2ccc(Cl)cc2)n1` [Cpd 21], in assay [2], the inhibition at 3 µM amounted to 15%.

Take `CN(O)C(=O)CCc1cc(-c2ccc(Cl)cc2)n(-c2ccc(OCc3ccc4ccccc4n3)cc2)n1` [Cpd 22]: the concentration for half-maximal inhibition (IC50) in assay [1] stood at 1000 nM. The inhibition at 3 µM in assay [2] stood at 100%.
